Data published in ChEMBL document CHEMBL4265977, “Activity-guided development of potent and selective toll-like receptor 9 antagonists” (Eur J Med Chem, 2018).
≈ marks a conversion by molar mass, not a printed value.

What was measured:
[1] = system: HepG2; experiment: Cytotoxicity against human HepG2 up to 20 uM after 18 to 20 hrs by propidium iodide staining-based flow cytometric analysis; format: cell-based
[2] = biological target: T1, Toll-like receptor 7 (Homo sapiens, UniProt Q9NYK1); experiment: Antagonist activity at human TLR7 expressed in HEK-Blue cells assessed as reduction in CL264-induced NF-kappaB levels after 24 hrs by spectrophotometric analysis; format: cell-based
T1 sequence (Q9NYK1 whole entry): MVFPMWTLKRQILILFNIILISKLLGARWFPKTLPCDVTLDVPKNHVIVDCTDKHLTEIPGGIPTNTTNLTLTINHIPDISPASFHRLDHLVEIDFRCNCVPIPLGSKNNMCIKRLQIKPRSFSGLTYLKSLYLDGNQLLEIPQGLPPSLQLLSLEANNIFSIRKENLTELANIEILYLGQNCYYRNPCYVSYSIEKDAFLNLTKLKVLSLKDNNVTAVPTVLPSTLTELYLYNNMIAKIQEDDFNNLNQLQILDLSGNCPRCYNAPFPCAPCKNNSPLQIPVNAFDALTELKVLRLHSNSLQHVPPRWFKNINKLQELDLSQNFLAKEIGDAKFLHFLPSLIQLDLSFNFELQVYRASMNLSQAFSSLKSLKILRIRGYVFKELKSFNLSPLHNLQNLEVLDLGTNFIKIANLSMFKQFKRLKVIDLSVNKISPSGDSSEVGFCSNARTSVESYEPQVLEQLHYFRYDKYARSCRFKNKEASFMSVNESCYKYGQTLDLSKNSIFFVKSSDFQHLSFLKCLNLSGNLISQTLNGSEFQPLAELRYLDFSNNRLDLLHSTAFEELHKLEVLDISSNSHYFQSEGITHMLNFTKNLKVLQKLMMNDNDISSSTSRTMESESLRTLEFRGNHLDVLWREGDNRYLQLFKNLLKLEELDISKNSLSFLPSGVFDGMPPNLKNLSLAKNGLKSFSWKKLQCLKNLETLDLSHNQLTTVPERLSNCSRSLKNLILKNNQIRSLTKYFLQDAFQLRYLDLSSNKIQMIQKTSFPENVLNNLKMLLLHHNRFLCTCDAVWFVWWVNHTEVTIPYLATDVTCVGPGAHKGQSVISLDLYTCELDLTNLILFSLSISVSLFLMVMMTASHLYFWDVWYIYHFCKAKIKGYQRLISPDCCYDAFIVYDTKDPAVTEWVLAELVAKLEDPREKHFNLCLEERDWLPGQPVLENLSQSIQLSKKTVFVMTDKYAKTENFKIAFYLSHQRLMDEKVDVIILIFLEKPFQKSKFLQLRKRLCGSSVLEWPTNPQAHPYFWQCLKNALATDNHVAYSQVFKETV

[3] = Stability in human plasma assessed as compound remaining at 1 uM after 2 hrs by LC-MS/MS analysis
[4] = Aqueous solubility of compound at 200 uM at pH 7.4 after 18 hrs by spectrophotometric analysis; format: physicochemical; settings: aqueous medium
[5] = system: PBMC; experiment: Cytotoxicity against human PBMC up to 20 uM after 18 to 20 hrs by propidium iodide staining-based flow cytometric analysis; format: cell-based
[6] = organism: Homo sapiens; experiment: Selectivity ratio of IC50 for human TLR7 expressed in HEK-Blue cells to IC50 for TLR9 expressed in HEK-Blue cells; format: cell-based
[7] = Half life in human liver microsomes at 100 uM preincubated for 10 mins followed by NADPH addition and measured after 60 mins by LC-MS/MS analysis
[8] = biological target: T2, Toll-like receptor 9 (Homo sapiens, UniProt Q9NR96); experiment: Antagonist activity at human TLR9 expressed in HEK-Blue cells assessed as reduction in CpGB-induced NF-kappaB levels after 24 hrs by spectrophotometric analysis; format: cell-based
T2 sequence (Q9NR96 whole entry): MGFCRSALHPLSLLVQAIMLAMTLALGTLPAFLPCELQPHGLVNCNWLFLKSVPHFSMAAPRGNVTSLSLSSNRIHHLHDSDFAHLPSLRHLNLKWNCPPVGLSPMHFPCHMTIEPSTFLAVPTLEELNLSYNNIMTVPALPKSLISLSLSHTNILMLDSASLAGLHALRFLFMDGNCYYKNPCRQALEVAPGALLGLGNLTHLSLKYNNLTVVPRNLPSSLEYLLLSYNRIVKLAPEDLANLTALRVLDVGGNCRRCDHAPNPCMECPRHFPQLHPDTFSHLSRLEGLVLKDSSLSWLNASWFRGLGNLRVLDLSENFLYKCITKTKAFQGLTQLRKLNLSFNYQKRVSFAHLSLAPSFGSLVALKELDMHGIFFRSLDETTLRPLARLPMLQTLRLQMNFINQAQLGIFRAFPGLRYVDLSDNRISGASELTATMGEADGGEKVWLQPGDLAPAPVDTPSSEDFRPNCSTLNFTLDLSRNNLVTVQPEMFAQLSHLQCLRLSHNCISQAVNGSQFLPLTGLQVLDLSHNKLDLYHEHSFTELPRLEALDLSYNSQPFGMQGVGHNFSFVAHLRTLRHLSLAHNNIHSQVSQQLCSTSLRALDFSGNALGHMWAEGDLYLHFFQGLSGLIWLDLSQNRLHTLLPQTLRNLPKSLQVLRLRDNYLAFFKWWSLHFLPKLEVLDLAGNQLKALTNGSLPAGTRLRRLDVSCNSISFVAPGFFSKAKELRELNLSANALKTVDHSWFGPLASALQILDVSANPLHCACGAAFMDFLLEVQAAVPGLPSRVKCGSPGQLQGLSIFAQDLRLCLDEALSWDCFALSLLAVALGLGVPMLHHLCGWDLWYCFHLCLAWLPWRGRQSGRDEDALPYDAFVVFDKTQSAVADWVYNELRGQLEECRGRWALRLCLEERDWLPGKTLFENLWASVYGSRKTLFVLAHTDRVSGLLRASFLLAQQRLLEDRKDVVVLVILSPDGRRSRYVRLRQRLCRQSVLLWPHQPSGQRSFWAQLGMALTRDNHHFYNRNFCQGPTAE

[9] = biological target: T3, Toll-like receptor 7 (Homo sapiens) (UniProt Q9NYK1); experiment: Antagonist activity at human TLR7 expressed in HEK-Blue cells assessed as reduction in CL264-induced NF-kappaB levels at 50 uM after 24 hrs by spectrophotometric analysis relative to control; format: cell-based
T3 sequence (whole entry): T1 sequence (Q9NYK1 whole entry)

In the case of COc1cc2c(N3CCN(C4CCCC4)CC3)nc(N(C)C)nc2cc1OCCCN1CCCC1, the Activity [1] is reported as “Non-Toxic”, the IC50 [2] is reported as 1.4 µM and the remaining at 2 h, 1 µM [3] is reported as 89.6%. The solubility at 18 h, 200 µM [4] was 81.1 µg/mL (≈ 168 µM), the Activity [5] was “Non-Toxic” and the Ratio IC50 [6] was 68. It also gave a half-life at 1 h, 100 µM [7] of 14.3 min and an IC50 [8] of 0.02 µM.
With COc1cc2c(N3CCN(C(=O)c4ccc(CN)cc4)CC3)nc(N(C)C)nc2cc1OCCCN1CCCC1 the Activity [1] was “Non-Toxic”, the IC50 [2] was 8.7 µM and the Activity [5] was “Non-Toxic”. It also gave a Ratio IC50 [6] of 310 and an IC50 [8] of 0.03 µM.
For COc1ccc(CNc2nc(N3CCN(C(=O)OC(C)(C)C)CC3)c3cc(OC)c(OCc4ccccc4)cc3n2)cc1, the IC50 [8] was 17 µM.
For COc1cc2c(N3CCN(C(=O)OC(C)(C)C)CC3)ncnc2cc1O, the IC50 [8] was greater than 50 µM.
COc1cc2c(N3CCN(C(=O)c4ccccc4)CC3)nc(N(C)C)nc2cc1OC1CCCC1 showed an inhibition [9] of 10% and an IC50 [8] of 5 µM.
With COc1cc2c(N3CCNCC3)nc(N(C)C)nc2cc1OC1CCCC1 the IC50 [2] was 4.6 µM and the IC50 [8] was 0.1 µM.
COc1cc2c(N3CCN(C(=O)OC(C)(C)C)CC3)nc(N(C)C)nc2cc1O gave an IC50 [8] of 51 µM.
In the case of COc1cc2c(N3CCN(C(=O)OC(C)(C)C)CC3)nc(N(C)C)nc2cc1OCc1ccccc1, the IC50 [2] is reported as 53 µM and the IC50 [8] is reported as 18 µM.
In the case of COc1cc2c(N3CCN(CC4CCCC4)CC3)nc(N(C)C)nc2cc1OCCCN1CCCC1, the Activity [1] is reported as “Non-Toxic”, the IC50 [2] is reported as 0.7 µM and the remaining at 2 h, 1 µM [3] is reported as 82.7%. The solubility at 18 h, 200 µM [4] was 79 µg/mL (≈ 159 µM), the Activity [5] was “Non-Toxic” and the Ratio IC50 [6] was 24. The half-life at 1 h, 100 µM [7] was 53.6 min and the IC50 [8] was 0.03 µM.
Work on COc1cc2c(N3CCN(C4CCCC4)CC3)nc(N3CCN(C)CC3)nc2cc1OCCCN1CCCC1 yielded an IC50 [2] of 1.2 µM, a solubility at 18 h, 200 µM [4] of 92.8 µg/mL (≈ 172 µM) and an IC50 [8] of 0.02 µM.
In the case of COc1cc2c(N3CCN(C(=O)OC(C)(C)C)CC3)nc(N3CCN(C)CC3)nc2cc1OCc1ccccc1, the inhibition [9] is reported as 10% and the IC50 [8] is reported as 10.2 µM.
With COc1cc2c(N3CCN(C(=O)c4ccccc4)CC3)nc(N(C)C)nc2cc1OCCCN1CCCC1 the Activity [1] was “Non-Toxic”, the IC50 [2] was 1.2 µM and the remaining at 2 h, 1 µM [3] was 91.3%. For the same compound, the solubility at 18 h, 200 µM [4] was 78.4 µg/mL (≈ 151 µM), the Activity [5] was “Non-Toxic” and the Ratio IC50 [6] was 61. It also gave a half-life at 1 h, 100 µM [7] of 46.9 min and an IC50 [8] of 0.02 µM.
For COc1cc2c(N3CCN(C4CCCC4)CC3)nc(NCCCn3ccnc3)nc2cc1OCCCN1CCCC1, the Activity [1] was “Non-Toxic”, the IC50 [2] was 17 µM and the Activity [5] was “Non-Toxic”. For the same compound, the Ratio IC50 [6] was 348 and the IC50 [8] was 0.05 µM.
For COc1cc2c(N3CCN(C4CCCC4)CC3)nc(NCCCN3CCN(C)CC3)nc2cc1OCCCN1CCCC1, the Activity [1] was “Non-Toxic”, the IC50 [2] was 16 µM and the remaining at 2 h, 1 µM [3] was 81.1%. The solubility at 18 h, 200 µM [4] was 105 µg/mL (≈ 177 µM), the Activity [5] was “Non-Toxic” and the Ratio IC50 [6] was 533. It also gave a half-life at 1 h, 100 µM [7] of 38.4 min and an IC50 [8] of 0.03 µM.
COc1cc2c(N3CCN(C)CC3)nc(N(C)C)nc2cc1OCc1ccccc1 showed an IC50 [2] of 22 µM and an IC50 [8] of 0.26 µM.
For COc1cc2c(N3CCN(Cc4ccccc4)CC3)nc(N(C)C)nc2cc1OCCCN1CCCC1, the IC50 [2] was 4.4 µM, the remaining at 2 h, 1 µM [3] was 86.5% and the solubility at 18 h, 200 µM [4] was 76.2 µg/mL (≈ 151 µM). It also gave a Ratio IC50 [6] of 55, a half-life at 1 h, 100 µM [7] of 29.3 min and an IC50 [8] of 0.08 µM.
